Measurements taken from paper PMC8231556, “Inhibiting Endothelial Cell Function in Normal and Tumor Angiogenesis Using BMP Type I Receptor Macrocyclic Kinase Inhibitors” (Cancers, 2021).

Key:
Assay in all cases: radiometric kinase profiling (33 PanQinase)
Type in all cases: biochemical
MAP3K5 = molecular target: T1, MAP3K5 (Homo sapiens, UniProt Q99683); settings: read-out: Inhibitory effect (%) MAP3K5
T1 construct: purchased ProQinase (33PanQinase Activity Assay)
T1 sequence (Q99683 1-1374): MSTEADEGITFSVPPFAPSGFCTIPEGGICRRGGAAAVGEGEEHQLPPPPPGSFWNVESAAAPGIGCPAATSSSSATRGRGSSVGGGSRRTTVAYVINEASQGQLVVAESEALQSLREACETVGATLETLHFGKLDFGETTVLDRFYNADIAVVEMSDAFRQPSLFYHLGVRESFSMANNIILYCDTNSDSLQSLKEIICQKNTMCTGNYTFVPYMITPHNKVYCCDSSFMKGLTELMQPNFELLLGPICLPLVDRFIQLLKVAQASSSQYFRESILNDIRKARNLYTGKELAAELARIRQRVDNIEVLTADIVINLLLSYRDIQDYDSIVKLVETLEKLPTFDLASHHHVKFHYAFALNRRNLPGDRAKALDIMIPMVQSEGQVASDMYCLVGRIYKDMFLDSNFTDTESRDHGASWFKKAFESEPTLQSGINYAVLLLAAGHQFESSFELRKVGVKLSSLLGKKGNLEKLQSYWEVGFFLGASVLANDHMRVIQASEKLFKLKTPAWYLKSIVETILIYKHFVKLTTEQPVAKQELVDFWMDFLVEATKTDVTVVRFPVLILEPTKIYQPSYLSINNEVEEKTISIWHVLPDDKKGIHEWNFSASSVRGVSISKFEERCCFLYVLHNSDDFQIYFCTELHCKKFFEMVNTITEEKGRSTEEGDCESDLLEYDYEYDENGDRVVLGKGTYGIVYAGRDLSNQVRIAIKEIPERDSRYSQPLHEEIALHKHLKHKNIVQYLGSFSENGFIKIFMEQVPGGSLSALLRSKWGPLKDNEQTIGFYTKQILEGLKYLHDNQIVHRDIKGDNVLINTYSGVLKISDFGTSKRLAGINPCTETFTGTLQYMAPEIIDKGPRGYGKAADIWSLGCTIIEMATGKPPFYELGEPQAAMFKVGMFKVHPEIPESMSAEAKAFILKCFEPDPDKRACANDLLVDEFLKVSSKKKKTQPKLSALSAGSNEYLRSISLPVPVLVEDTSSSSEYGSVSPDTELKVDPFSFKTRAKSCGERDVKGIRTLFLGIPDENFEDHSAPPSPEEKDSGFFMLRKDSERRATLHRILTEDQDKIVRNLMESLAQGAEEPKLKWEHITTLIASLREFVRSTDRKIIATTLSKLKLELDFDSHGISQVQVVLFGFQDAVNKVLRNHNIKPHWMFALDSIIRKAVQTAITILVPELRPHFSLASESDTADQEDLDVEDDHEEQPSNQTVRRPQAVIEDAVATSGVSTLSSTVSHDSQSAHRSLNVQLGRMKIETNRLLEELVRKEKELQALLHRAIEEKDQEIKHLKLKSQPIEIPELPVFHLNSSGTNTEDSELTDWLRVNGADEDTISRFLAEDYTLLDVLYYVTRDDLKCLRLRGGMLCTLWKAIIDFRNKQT
How it was run: (§1)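 Enzyme/substrate mixes were incubated with [γ-33P]-ATP and compound (added as a 0.1 μM solution in 10% DMSO) at 30 °C for 60 min, then stopped with H3PO4 and washed with NaCl. 33P incorporation was scintillation-counted, and residual activity (%) was normalized to untreated control and background.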

SRC = molecular target: T2, SRC (Homo sapiens, UniProt P12931); settings: read-out: Inhibitory effect (%) SRC
T2 construct: purchased ProQinase (33PanQinase Activity Assay)
How it was run: as §1

CSNK1G2 = molecular target: T3, CSNK1G2 (Homo sapiens, UniProt P78368); settings: read-out: Inhibitory effect (%) CSNK1G2
T3 construct: purchased Proqinase, Germany
How it was run: as §1

CDK8_cyclinC = molecular target: T4, CDK8_cyclinC (Homo sapiens, UniProt P49336); settings: read-out: Inhibitory effect (%) CDK8_cyclinC
T4 construct: purchased Proqinase, Germany
How it was run: as §1

LCK = molecular target: T5, LCK (Homo sapiens, UniProt P06239); settings: read-out: Inhibitory effect (%) LCK
T5 construct: purchased ProQinase (33PanQinase Activity Assay)
How it was run: as §1

PHKG2 = molecular target: T6, PHKG2 (Homo sapiens, UniProt P15735); settings: read-out: Inhibitory effect (%) PHKG2
T6 construct: purchased ProQinase (33PanQinase Activity Assay)
T6 sequence (P15735 1-406): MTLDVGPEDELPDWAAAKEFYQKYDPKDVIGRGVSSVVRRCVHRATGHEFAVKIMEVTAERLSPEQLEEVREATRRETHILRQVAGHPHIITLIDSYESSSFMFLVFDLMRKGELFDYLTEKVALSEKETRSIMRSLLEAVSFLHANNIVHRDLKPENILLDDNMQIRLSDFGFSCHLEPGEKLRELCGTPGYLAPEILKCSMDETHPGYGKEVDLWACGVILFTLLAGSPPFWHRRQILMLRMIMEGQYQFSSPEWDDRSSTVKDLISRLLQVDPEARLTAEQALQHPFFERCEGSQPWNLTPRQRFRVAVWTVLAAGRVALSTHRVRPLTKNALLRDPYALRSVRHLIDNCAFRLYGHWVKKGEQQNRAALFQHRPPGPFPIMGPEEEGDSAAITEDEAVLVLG
How it was run: as §1

DAPK1 = molecular target: T7, DAPK1 (Homo sapiens, UniProt P53355); settings: read-out: Inhibitory effect (%) DAPK1
T7 construct: purchased Proqinase, Germany
How it was run: as §1

T2 sequence (P12931 whole entry): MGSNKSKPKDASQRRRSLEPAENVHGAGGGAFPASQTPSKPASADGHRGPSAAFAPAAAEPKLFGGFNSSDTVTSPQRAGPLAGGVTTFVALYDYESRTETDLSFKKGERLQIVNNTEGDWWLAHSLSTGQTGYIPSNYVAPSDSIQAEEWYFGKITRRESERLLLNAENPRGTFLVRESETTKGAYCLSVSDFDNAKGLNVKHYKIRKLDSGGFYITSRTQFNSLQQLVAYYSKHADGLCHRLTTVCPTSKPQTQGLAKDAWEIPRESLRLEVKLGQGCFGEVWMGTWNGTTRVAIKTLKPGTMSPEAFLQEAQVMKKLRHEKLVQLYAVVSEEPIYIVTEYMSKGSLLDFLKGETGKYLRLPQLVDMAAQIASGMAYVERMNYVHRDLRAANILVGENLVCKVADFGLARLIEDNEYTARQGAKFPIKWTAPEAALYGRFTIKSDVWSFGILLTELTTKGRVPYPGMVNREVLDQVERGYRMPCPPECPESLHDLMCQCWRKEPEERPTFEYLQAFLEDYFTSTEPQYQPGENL
T3 sequence (P78368 whole entry): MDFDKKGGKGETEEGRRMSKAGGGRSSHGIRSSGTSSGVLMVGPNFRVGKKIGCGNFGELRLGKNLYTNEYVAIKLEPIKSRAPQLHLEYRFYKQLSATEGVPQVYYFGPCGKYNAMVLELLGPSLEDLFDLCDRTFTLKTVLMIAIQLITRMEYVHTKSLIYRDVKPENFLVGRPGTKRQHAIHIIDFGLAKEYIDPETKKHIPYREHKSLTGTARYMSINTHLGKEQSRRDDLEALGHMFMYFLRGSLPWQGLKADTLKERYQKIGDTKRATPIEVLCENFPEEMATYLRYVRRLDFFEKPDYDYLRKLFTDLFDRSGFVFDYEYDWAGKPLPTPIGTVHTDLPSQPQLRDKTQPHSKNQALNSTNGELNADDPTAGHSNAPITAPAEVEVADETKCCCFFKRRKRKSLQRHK
T4 sequence (P49336 whole entry): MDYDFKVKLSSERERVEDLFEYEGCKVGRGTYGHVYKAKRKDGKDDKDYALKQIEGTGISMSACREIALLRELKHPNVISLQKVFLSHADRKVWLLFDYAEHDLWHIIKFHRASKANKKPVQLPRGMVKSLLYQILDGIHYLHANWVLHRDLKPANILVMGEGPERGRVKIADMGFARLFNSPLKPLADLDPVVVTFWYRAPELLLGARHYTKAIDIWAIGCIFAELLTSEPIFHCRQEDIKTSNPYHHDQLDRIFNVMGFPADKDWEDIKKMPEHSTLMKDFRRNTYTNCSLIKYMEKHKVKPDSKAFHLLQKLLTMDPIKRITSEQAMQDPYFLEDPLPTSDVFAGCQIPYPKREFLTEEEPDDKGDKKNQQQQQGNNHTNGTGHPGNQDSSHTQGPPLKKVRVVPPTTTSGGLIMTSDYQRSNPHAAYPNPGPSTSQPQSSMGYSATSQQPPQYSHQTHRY
T4 sequence (P24863 whole entry partner): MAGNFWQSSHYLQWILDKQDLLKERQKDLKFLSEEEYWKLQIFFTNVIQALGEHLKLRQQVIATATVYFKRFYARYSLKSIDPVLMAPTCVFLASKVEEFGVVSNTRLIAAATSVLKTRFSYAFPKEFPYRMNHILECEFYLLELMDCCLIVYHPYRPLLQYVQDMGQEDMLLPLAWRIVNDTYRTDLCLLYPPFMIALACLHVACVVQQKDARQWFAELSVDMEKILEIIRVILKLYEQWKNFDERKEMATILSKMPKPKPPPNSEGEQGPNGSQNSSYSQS
T5 sequence (P06239 whole entry): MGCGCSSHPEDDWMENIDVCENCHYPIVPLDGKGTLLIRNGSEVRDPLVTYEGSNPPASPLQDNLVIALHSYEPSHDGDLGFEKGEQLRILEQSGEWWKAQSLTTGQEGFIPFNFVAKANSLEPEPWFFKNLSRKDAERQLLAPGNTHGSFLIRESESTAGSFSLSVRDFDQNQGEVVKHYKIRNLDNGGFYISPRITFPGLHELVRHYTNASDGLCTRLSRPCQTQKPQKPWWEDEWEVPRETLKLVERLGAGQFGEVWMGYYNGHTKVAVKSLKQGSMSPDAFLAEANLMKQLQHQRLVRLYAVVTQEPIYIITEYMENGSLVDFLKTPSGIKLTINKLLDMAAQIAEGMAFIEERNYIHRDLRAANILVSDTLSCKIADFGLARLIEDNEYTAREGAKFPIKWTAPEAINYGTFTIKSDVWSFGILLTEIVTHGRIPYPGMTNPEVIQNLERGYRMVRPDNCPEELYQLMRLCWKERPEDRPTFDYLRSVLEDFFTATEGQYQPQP
T7 sequence (P53355 whole entry): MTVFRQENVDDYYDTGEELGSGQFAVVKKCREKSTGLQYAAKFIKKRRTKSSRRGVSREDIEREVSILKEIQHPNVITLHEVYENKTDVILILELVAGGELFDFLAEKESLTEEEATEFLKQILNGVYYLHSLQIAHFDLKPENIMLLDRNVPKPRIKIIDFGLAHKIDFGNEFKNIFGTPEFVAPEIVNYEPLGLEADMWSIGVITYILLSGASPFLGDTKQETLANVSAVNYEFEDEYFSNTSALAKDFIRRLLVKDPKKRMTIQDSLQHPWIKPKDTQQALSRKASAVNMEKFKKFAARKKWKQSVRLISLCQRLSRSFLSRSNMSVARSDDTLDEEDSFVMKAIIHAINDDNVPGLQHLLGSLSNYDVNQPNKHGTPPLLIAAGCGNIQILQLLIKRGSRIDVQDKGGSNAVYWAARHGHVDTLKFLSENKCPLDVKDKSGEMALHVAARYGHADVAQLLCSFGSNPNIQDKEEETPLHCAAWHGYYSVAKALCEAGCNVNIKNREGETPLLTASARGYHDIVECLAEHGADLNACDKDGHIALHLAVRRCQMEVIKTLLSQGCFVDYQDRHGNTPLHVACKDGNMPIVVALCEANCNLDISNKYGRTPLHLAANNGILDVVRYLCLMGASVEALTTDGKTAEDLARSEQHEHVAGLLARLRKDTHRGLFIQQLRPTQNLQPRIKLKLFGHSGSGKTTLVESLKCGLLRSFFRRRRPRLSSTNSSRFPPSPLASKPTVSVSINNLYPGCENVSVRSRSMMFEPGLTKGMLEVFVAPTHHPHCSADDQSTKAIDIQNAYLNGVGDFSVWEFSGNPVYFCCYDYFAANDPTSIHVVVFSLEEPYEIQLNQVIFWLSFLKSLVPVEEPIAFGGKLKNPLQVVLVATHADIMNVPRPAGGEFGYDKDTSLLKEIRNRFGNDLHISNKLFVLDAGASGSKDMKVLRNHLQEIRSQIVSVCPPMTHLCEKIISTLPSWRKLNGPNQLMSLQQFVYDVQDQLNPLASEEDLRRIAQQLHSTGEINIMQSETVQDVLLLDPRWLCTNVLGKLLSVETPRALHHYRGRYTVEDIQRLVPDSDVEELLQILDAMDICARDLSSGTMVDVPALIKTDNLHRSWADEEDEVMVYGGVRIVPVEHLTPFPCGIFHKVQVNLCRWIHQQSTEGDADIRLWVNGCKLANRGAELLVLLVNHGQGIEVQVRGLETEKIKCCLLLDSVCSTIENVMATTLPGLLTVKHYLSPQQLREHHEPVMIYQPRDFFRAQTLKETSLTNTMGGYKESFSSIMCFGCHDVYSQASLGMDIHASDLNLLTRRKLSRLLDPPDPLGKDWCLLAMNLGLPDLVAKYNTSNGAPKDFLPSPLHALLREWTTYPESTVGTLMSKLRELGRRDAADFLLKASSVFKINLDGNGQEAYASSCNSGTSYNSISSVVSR

| Structure (SMILES) | inhibition at 0.1 µM (MAP3K5) | inhibition at 0.1 µM (SRC) | inhibition at 0.1 µM (CSNK1G2) | inhibition at 0.1 µM (CDK8_cyclinC) | inhibition at 0.1 µM (LCK) | inhibition at 0.1 µM (PHKG2) | inhibition at 0.1 µM (DAPK1) |
| --- | --- | --- | --- | --- | --- | --- | --- |
| CN1CCC(=O)NCCNc2ccn3ncc(c3n2)-c2cccc(c2)C1 [OD29] | 0.68% | -4.82% | -0.5% | -9.32% | 35.6% | -1.93% | -3.89% |
| CN1CCc2cccc(c2)Nc2nccc(n2)N2CCCc3cc(ccc32)C1 [OD16] | -11.3% | -19.4% | -15.6% | -16.6% | 6.7% | 1.87% | -6.59% |
| c1ccc2c(-c3cnn4cc(-c5ccc(N6CCNCC6)cc5)cnc34)ccnc2c1 [LDN-193189, reference compound] | 6.9% | 2.89% | -23.1% | -1.99% | 25.4% | -23.6% | 11.3% |
